“Also recorded” adds a separate entry of the source.
Legend:
Cyperus amuricus = test: Weed spectrum, greenhouse pot test; format: in vivo; settings: two weeks after application
Outline: (§1)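 Scores reflect visual weed control two weeks after spraying, where 0 means no effect and 100 complete control. Plants grew in a greenhouse at 25˜30° C by day and 15˜25° C by night, with treatment either at sowing or at three-leaf stage.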

Portulaca oleracea = test: Weed spectrum, greenhouse pot test; format: in vivo; settings: two weeks after application
Outline: as §1

Veronica officinalis = test: Weed spectrum, greenhouse pot test; format: in vivo; settings: two weeks after application
Outline: as §1

Bentgrass = test: Turf grass selectivity, greenhouse pot test; format: in vivo, Agrostris palustris
Text: (§2) Turf mats of Zoysia grass, bentgrass, Kentucky bluegrass, or perennial rye grass known as cool season turfgrass or western grass were purchased and cut into a piece having 10 cm×20 cm size. Then, each piece was transplanted in a rectangular plastic pot (surface area of 300 cm^2) in which sandy loam and mixed top soil (Boo-Nong Top Soil No. 3, for horticultural use) are filled in 1:1 ratio. After the transplantation, the grasses were cut once a week to maintain the blade height at 0.5-1.0 cm and cultivated for one month in a green house of which temperature was kept at 25˜30° C. for daytime and 15˜25° C. for nighttime, respectively. Then, the ‘test chemical’ of the above Examples 1 and 2 or ‘control chemical’ was applied thereto in an amount of 400, 200, 100, 50, 25, 12, 6, 3 g ai/ha. As a “control chemical”, pyrazolsulfuron ethyl wettable agent (manufactured by Dongbu Fine Chemicals; herein after, referred to as ‘control chemical No. 1’) and flazasulfuron (manufactured by Dongbu HiTek; herein after, referred to as ‘control chemical No. 2’), both sulfonylurea herbicides for a turf grass, were used. Application was carried out by using a track sprayer (R&D Sprayer, USA) equipped with Teejet 8002 nozzle (Spraying Systems Co., USA), and the application amount was adjusted to 2,000 L/ha, which is a typical application amount for a golf course in Korea. Application solution was prepared by diluting the “test chemical” or the “control chemical” with tap water. […] The test was repeated three times in a random arrangement and the results are given in average value of each test (see Table 2 below).

Viola arvensis = test: Actual field condition test of Example 2 (turf grass field); format: in vivo; settings: 50 g ai/ha
Method: The test chemical of the Example 2 was applied to a turf grass field, in which Viola arvensis as a representative hard-to-control perennial weed is thriving predominantly, to evaluate a weed control effect of the compound. The experiment was carried out from May to June, 2007 in the turf grass field within Korea Research Institute of Bioscience and Biotechnology (52, Ueun-dong, Yusong-gu, Daejon, South Korea). Fourteen days after the chemical application, the turf grass was cut once.

cool season turfgrass = test: Turf grass selectivity, summary for cool season turfgrass; format: in vivo; settings: application amount as low as 3 g ai/ha
Text: Turf mats of Zoysia grass, bentgrass, Kentucky bluegrass, or perennial rye grass known as cool season turfgrass or western grass were purchased and cut into a piece having 10 cm×20 cm size. Then, each piece was transplanted in a rectangular plastic pot (surface area of 300 cm^2) in which sandy loam and mixed top soil (Boo-Nong Top Soil No. 3, for horticultural use) are filled in 1:1 ratio. After the transplantation, the grasses were cut once a week to maintain the blade height at 0.5-1.0 cm and cultivated for one month in a green house of which temperature was kept at 25˜30° C. for daytime and 15˜25° C. for nighttime, respectively. Then, the ‘test chemical’ of the above Examples 1 and 2 or ‘control chemical’ was applied thereto in an amount of 400, 200, 100, 50, 25, 12, 6, 3 g ai/ha. As a “control chemical”, pyrazolsulfuron ethyl wettable agent (manufactured by Dongbu Fine Chemicals; herein after, referred to as ‘control chemical No. 1’) and flazasulfuron (manufactured by Dongbu HiTek; herein after, referred to as ‘control chemical No. 2’), both sulfonylurea herbicides for a turf grass, were used. Application was carried out by using a track sprayer (R&D Sprayer, USA) equipped with Teejet 8002 nozzle (Spraying Systems Co., USA), and the application amount was adjusted to 2,000 L/ha, which is a typical application amount for a golf course in Korea. […]

[1] = tested on: every kind of turf grasses tested; test: Turf grass selectivity, text summary over all turf grasses; format: in vivo
Text: as §2

Kentucky bluegrass = test: Actual field condition test of Example 1 (golf course); format: in vivo, Poa pratensis; settings: twenty days after application
Method: (§3) The test chemical of the Example 1 was applied to a turf grass field, in which Digitaria sanguinalis as a representative summer-time poaceae weed and Kyllinga brevifolia as a representative hard-to-control perennial cyperaceae weed are thriving predominantly, to evaluate weed control effect of the compound. The experiment was carried out from May to July, 2008 in the Dae-duk Research Park golf course (Doryong-dong, Yusong-gu, Daejon, South Korea). At the time of the chemical application, Digitaria sanguinalis was at about 4-leaf stage and Kyllinga brevifolia was at growth period.

Digitaria sanguinalis = test: as above; format: in vivo; settings: for efficacy in actual field condition: Digitaria sanguinalis (about 4-leaf stage), twenty days after application
Method: as §3

Zoysia japonica = test: as above; format: in vivo; settings: twenty days after application
Method: as §3

SMILES: COc1cc(OC)nc(NC(=O)NS(=O)(=O)c2ncccc2C(F)(F)F)n1 [Control chemical No. 2, Flazasulfuron, reference compound]
- efficacy (0-100 scale) (Cyperus amuricus; Post-emergence, 12 g ai/ha): 60
- efficacy (0-100 scale) (Cyperus amuricus; Post-emergence, 25 g ai/ha): 70
- efficacy (0-100 scale) (Cyperus amuricus; Post-emergence, 50 g ai/ha): 80
- efficacy (0-100 scale) (Cyperus amuricus; Post-emergence, 100 g ai/ha): 80
- efficacy (0-100 scale) (Cyperus amuricus; Pre-emergence, 12 g ai/ha): 40
- efficacy (0-100 scale) (Cyperus amuricus; Pre-emergence, 25 g ai/ha): 70
- efficacy (0-100 scale) (Cyperus amuricus; Pre-emergence, 50 g ai/ha): 80
- efficacy (0-100 scale) (Cyperus amuricus; Pre-emergence, 100 g ai/ha): 100
- efficacy (0-100 scale) (Portulaca oleracea; Post-emergence, 12 g ai/ha): 80
- efficacy (0-100 scale) (Portulaca oleracea; Post-emergence, 25 g ai/ha): 90
- efficacy (0-100 scale) (Portulaca oleracea; Post-emergence, 50 g ai/ha): 90
- efficacy (0-100 scale) (Portulaca oleracea; Post-emergence, 100 g ai/ha): 100
- efficacy (0-100 scale) (Portulaca oleracea; Pre-emergence, 12 g ai/ha): 40
- efficacy (0-100 scale) (Portulaca oleracea; Pre-emergence, 25 g ai/ha): 60
- efficacy (0-100 scale) (Portulaca oleracea; Pre-emergence, 50 g ai/ha): 90
- efficacy (0-100 scale) (Portulaca oleracea; Pre-emergence, 100 g ai/ha): 100
- efficacy (0-100 scale) (Veronica officinalis; Post-emergence, 12 g ai/ha): 10
- efficacy (0-100 scale) (Veronica officinalis; Post-emergence, 25 g ai/ha): 20
- efficacy (0-100 scale) (Veronica officinalis; Post-emergence, 50 g ai/ha): 30
- efficacy (0-100 scale) (Veronica officinalis; Post-emergence, 100 g ai/ha): 40
- efficacy (0-100 scale) (Veronica officinalis; Pre-emergence, 12 g ai/ha): 20
- efficacy (0-100 scale) (Veronica officinalis; Pre-emergence, 25 g ai/ha): 30
- efficacy (0-100 scale) (Veronica officinalis; Pre-emergence, 50 g ai/ha): 50
- efficacy (0-100 scale) (Veronica officinalis; Pre-emergence, 100 g ai/ha): 60
- phytotoxicity (visual assessment 0-10) (Bentgrass; 3 g ai/ha, 2 weeks): 10
- phytotoxicity (visual assessment 0-10) (Bentgrass; 3 g ai/ha, 4 weeks): 10
- phytotoxicity (visual assessment 0-10) (Bentgrass; 6 g ai/ha, 2 weeks): 10
- phytotoxicity (visual assessment 0-10) (Bentgrass; 6 g ai/ha, 4 weeks): 10
- phytotoxicity (visual assessment 0-10) (Bentgrass; 12 g ai/ha, 2 weeks): 10
- phytotoxicity (visual assessment 0-10) (Bentgrass; 12 g ai/ha, 4 weeks): 10
- phytotoxicity (visual assessment 0-10) (Bentgrass; 25 g ai/ha, 2 weeks): 10
- phytotoxicity (visual assessment 0-10) (Bentgrass; 25 g ai/ha, 4 weeks): 10
- phytotoxicity (visual assessment 0-10) (Bentgrass; 50 g ai/ha, 2 weeks): 10
- phytotoxicity (visual assessment 0-10) (Bentgrass; 50 g ai/ha, 4 weeks): 10
- phytotoxicity (visual assessment 0-10) (Bentgrass; 100 g ai/ha, 2 weeks): 10
- phytotoxicity (visual assessment 0-10) (Bentgrass; 100 g ai/ha, 4 weeks): 10
- phytotoxicity (visual assessment 0-10) (Bentgrass; 200 g ai/ha, 2 weeks): 10
- phytotoxicity (visual assessment 0-10) (Bentgrass; 200 g ai/ha, 4 weeks): 10
- phytotoxicity (visual assessment 0-10) (Bentgrass; 400 g ai/ha, 2 weeks): 10
- phytotoxicity (visual assessment 0-10) (Bentgrass; 400 g ai/ha, 4 weeks): 10
- Effect on Viola arvensis (Viola arvensis; After 7 days): 20
- Effect on Viola arvensis (Viola arvensis; After 14 days): 50
- phytotoxicity to cool season turfgrass (cool season turfgrass): complete withering; also recorded: completely withered

SMILES: Cc1cc(C)nc(NC(=O)NS(=O)(=O)c2ccccc2C(O)C(C)F)n1 (centres unmarked) [Example 1]
- efficacy (0-100 scale) (Cyperus amuricus; Post-emergence, 12 g ai/ha): 90
- efficacy (0-100 scale) (Cyperus amuricus; Post-emergence, 25 g ai/ha): 95
- efficacy (0-100 scale) (Cyperus amuricus; Post-emergence, 50 g ai/ha): 100
- efficacy (0-100 scale) (Cyperus amuricus; Post-emergence, 100 g ai/ha): 100
- efficacy (0-100 scale) (Cyperus amuricus; Pre-emergence, 12 g ai/ha): 90
- efficacy (0-100 scale) (Cyperus amuricus; Pre-emergence, 25 g ai/ha): 95
- efficacy (0-100 scale) (Cyperus amuricus; Pre-emergence, 50 g ai/ha): 100
- efficacy (0-100 scale) (Cyperus amuricus; Pre-emergence, 100 g ai/ha): 100
- efficacy (0-100 scale) (Portulaca oleracea; Post-emergence, 12 g ai/ha): 70
- efficacy (0-100 scale) (Portulaca oleracea; Post-emergence, 25 g ai/ha): 90
- efficacy (0-100 scale) (Portulaca oleracea; Post-emergence, 50 g ai/ha): 100
- efficacy (0-100 scale) (Portulaca oleracea; Post-emergence, 100 g ai/ha): 100
- efficacy (0-100 scale) (Portulaca oleracea; Pre-emergence, 12 g ai/ha): 90
- efficacy (0-100 scale) (Portulaca oleracea; Pre-emergence, 25 g ai/ha): 90
- efficacy (0-100 scale) (Portulaca oleracea; Pre-emergence, 50 g ai/ha): 100
- efficacy (0-100 scale) (Portulaca oleracea; Pre-emergence, 100 g ai/ha): 100
- efficacy (0-100 scale) (Veronica officinalis; Post-emergence, 12 g ai/ha): 20
- efficacy (0-100 scale) (Veronica officinalis; Post-emergence, 25 g ai/ha): 20
- efficacy (0-100 scale) (Veronica officinalis; Post-emergence, 50 g ai/ha): 20
- efficacy (0-100 scale) (Veronica officinalis; Post-emergence, 100 g ai/ha): 20
- efficacy (0-100 scale) (Veronica officinalis; Pre-emergence, 12 g ai/ha): 30
- efficacy (0-100 scale) (Veronica officinalis; Pre-emergence, 25 g ai/ha): 30
- efficacy (0-100 scale) (Veronica officinalis; Pre-emergence, 50 g ai/ha): 40
- efficacy (0-100 scale) (Veronica officinalis; Pre-emergence, 100 g ai/ha): 50
- phytotoxicity (visual assessment 0-10) (Bentgrass; 3 g ai/ha, 2 weeks): 0
- phytotoxicity (visual assessment 0-10) (Bentgrass; 3 g ai/ha, 4 weeks): 0
- phytotoxicity (visual assessment 0-10) (Bentgrass; 6 g ai/ha, 2 weeks): 0
- phytotoxicity (visual assessment 0-10) (Bentgrass; 6 g ai/ha, 4 weeks): 0
- phytotoxicity (visual assessment 0-10) (Bentgrass; 12 g ai/ha, 2 weeks): 0
- phytotoxicity (visual assessment 0-10) (Bentgrass; 12 g ai/ha, 4 weeks): 0
- phytotoxicity (visual assessment 0-10) (Bentgrass; 25 g ai/ha, 2 weeks): 0
- phytotoxicity (visual assessment 0-10) (Bentgrass; 25 g ai/ha, 4 weeks): 0
- phytotoxicity (visual assessment 0-10) (Bentgrass; 50 g ai/ha, 2 weeks): 0
- phytotoxicity (visual assessment 0-10) (Bentgrass; 50 g ai/ha, 4 weeks): 0
- phytotoxicity (visual assessment 0-10) (Bentgrass; 100 g ai/ha, 2 weeks): 1
- phytotoxicity (visual assessment 0-10) (Bentgrass; 100 g ai/ha, 4 weeks): 0
- phytotoxicity (visual assessment 0-10) (Bentgrass; 200 g ai/ha, 2 weeks): 2
- phytotoxicity (visual assessment 0-10) (Bentgrass; 200 g ai/ha, 4 weeks): 1
- phytotoxicity (visual assessment 0-10) (Bentgrass; 400 g ai/ha, 2 weeks): 3
- phytotoxicity (visual assessment 0-10) (Bentgrass; 400 g ai/ha, 4 weeks): 2
- phytotoxicity to a turf grass ([1]; 100 g ai/ha): no phytotoxicity at all
- phytotoxicity to a turf grass ([1]; 400 g ai/ha): only minor phytotoxicity
- phytotoxicity to turf grasses ([1]; 400 or 200 g ai/ha): only minor phytotoxicity
- safety to turf grasses ([1]; every kind of turf grasses tested, 100 g ai/ha or less): excellent safety
- phytotoxicity in actual field condition (Kentucky bluegrass; 50 g ai/ha): 0
- phytotoxicity in actual field condition (Kentucky bluegrass; 100 g ai/ha): 0
- efficacy in actual field condition (Digitaria sanguinalis; 50 g ai/ha): 80
- efficacy in actual field condition (Digitaria sanguinalis; 100 g ai/ha): 90
- efficacy in actual field condition (Digitaria sanguinalis; 200 g ai/ha): 100
- weed controlled in actual field (Digitaria sanguinalis; Digitaria sanguinalis, 50 g ai/ha or more): 80%
- phytotoxicity in actual field condition (Zoysia japonica; 50 g ai/ha): 0
- phytotoxicity in actual field condition (Zoysia japonica; 100 g ai/ha): 0
